≈ marks a conversion by molar mass, not a printed value.
system: adipose cells of rats; assay: Evaluation of the sugar transportation activity (2-[14C(U)]-deoxy-D-glucose incorporation); type: cell-based, Wistar rats; details: concentration with reinforcing effect of 50% of that of insulin (100 nM) = 100%; rat adipose cells, 30 min pre-culture at 37° C., 5 min uptake
Description: 1. Preparation of Adipose Cells of Rats:
After the decapitation and venesection of 6 male Wistar rats (body weight: 150 to 200 g), an incision was made in the abdomen of each rat to extract 6 g in total of epididymal adipose tissues. The tissues were finely cut into 2 mm×2 mm pieces in 6 ml of KRH (Krebs-Ringer Hepes, composition: 130 mM of sodium chloride, 4.7 mM of potassium chloride, 1.2 mM of potassium dihydrogenphosphate, 1.2 mM of magnesium sulfate, 1 mM of calcium chloride and 25 mM of Hepes, pH=7.6) containing 5% of BSA (bovine serum albumin). 24 mg of collagenase (type I) was added thereto and the digestion treatment was conducted for about 40 minutes to obtain about 6 ml of isolated adipose cells. The collagenase was removed by the buffer exchange. 2% BSA/KRH solution was added to the residue for the re-suspension to obtain 45 ml of an adipose cell suspension.
2. Evaluation of the Sugar Transportation Activity:
The sugar transportation activity of the compound (I) of the present invention was evaluated with reference to a method described in a literature [Annual Review of Biochemistry, Vol. 55, p. 1059 (1986)]. In the test, 200 μL of the adipose cell suspension was poured in each polystyrene test tube, 100 μL of the solution of the test substance (by dilution of 10 mg/mL dimethyl sulfoxide solution with KRH) was added thereto, and the obtained mixture was shaken and then cultured at 37° C. for 30 minutes. The sugar transportation activity was evaluated by measuring the quantity of 2-[^14C(U)]-deoxy-D-glucose incorporated per a unit time. Namely, 2-[^14C(U)]-deoxy-D-glucose was added to the adipose cell suspension after the pre-culture (the final concentration: 0.5 μCi/sample). 5 minutes after, cytochalasin B (final concentration: 10 μM) was added to the mixture to terminate the sugar transportation. After forming a dinonyl phthalate layer, the obtained mixture was centrifuged to separate the adipose cells from the buffer. The quantity of 2-[^14C(U)]-deoxy-D-glucose contained in the adipose cell layer was determined with a liquid scintillation counter to determine the quantity of the incorporated sugar. In this evaluation system, when insulin (100 nM) having the effect of reinforcing the sugar transportation was used, the effect was about 7 times as high as that obtained in the insulin-free control group.
The results of the evaluation of the sugar transportation activity obtained by using 100 μg/mL of the compound (I) of the present invention are shown in Table 3. The sugar transportation activity in Table 3 was evaluated on the basis of the reinforcing effect of insulin (100 nM). The sugar transportation activity A in Table 3 was determined in terms of the concentration (EC50: μg/mL) of a test compound, having a reinforcing effect corresponding to 50% on the basis of the reinforcing effect of insulin (100 nM) having a reinforcing effect of 100%.
The symbols in Table 3 are as follows: • No: Compound No. in Tables 1 and 2, and • A: sugar transportation activity.

Compound | A: sugar transportation activity (EC50) | EC50
COc1ccc([C@@H]2C3=C(CNC3=O)N[C@@H]3CCCC[C@H]3N2C(C)=O)c(OC)c1 [Compound 78] | 10 µg/mL | –
COc1ccc([C@@H]2C3=C(CNC3=O)N[C@@H]3CCCC[C@H]3N2C(C)=O)cc1 [Compound 138] | 4.4 µg/mL | –
CCOCC(=O)N1[C@@H]2CCCC[C@H]2NC2=C(C(=O)NC2)[C@H]1c1ccc(Cl)cc1 [Compound 141] | 6 µg/mL | –
CCC(=O)N1[C@@H]2CCCC[C@H]2NC2=C(C(=O)NC2)[C@H]1c1ccc(F)cc1OC [Compound 70] | 0.82 µg/mL | –
CCCC(=O)N1[C@@H]2CCCC[C@H]2NC2=C(C(=O)NC2)[C@H]1c1ccccc1CC [Compound 93] | 5 µg/mL | –
COc1ccccc1[C@@H]1C2=C(CNC2=O)N[C@@H]2CCCC[C@H]2N1C(C)=O [Compound 1] | 1.3 µg/mL | –
COc1ccccc1[C@@H]1C2=C(CNC2=O)N[C@@H]2CCCC[C@H]2N1C(=O)CCCO [Compound 19] | 4.8 µg/mL | –
CCOCC(=O)N1[C@@H]2CCCC[C@H]2NC2=C(C(=O)NC2)[C@H]1c1ccccc1Cl [Compound 120] | 10.7 µg/mL | –
CCOCC(=O)N1[C@@H]2CCCC[C@H]2NC2=C(C(=O)NC2)[C@H]1c1ccc(F)cc1OC [Compound 71] | 7.8 µg/mL | –
CCOCC(=O)N1[C@@H]2CCCC[C@H]2NC2=C(C(=O)NC2)[C@H]1c1cccc(Cl)c1C [Compound 108] | 5 µg/mL | –
CCCC(=O)N1[C@@H]2CCCC[C@H]2NC2=C(C(=O)NC2)[C@H]1c1ccccc1Cl [Compound 117] | 4 µg/mL | –
CCc1ccccc1[C@@H]1C2=C(CNC2=O)N[C@@H]2CCCC[C@H]2N1C(=O)OC [Compound 99] | 4 µg/mL | –
CCOCC(=O)N1[C@@H]2CCCC[C@H]2NC2=C(C(=O)NC2)[C@H]1c1ccccc1OCc1ccccc1 [Compound 63] | 4 µg/mL | –
CC(=O)N1[C@@H]2CCCC[C@H]2NC2=C(C(=O)NC2)[C@H]1c1ccccc1OC1CC1 [Compound 61] | 0.9 µg/mL | –
O=C1NCC2=C1[C@@H](c1ccccc1Br)N(C(=O)CC(F)(F)F)[C@@H]1CCCC[C@H]1N2 [Compound 109] | 0.5 µg/mL | –
CCOCC(=O)N1[C@@H]2CCCC[C@H]2NC2=C(C(=O)NC2)[C@H]1c1ccccc1C [Compound 84] | 4 µg/mL | –
CCOc1ccccc1[C@@H]1C2=C(CNC2=O)N[C@@H]2CCCC[C@H]2N1C(=O)OC [Compound 54] | 1.5 µg/mL | –
CCOC(=O)N1[C@@H]2CCCC[C@H]2NC2=C(C(=O)NC2)[C@H]1c1ccccc1OC [Compound 38] | 4.2 µg/mL | –
O=C1NCC2=C1[C@@H](c1ccccc1Cl)N(C(=O)CC(F)(F)F)[C@@H]1CCCC[C@H]1N2 [Compound 118] | 0.5 µg/mL | –
COC(=O)CCC(=O)N1[C@@H]2CCCC[C@H]2NC2=C(C(=O)NC2)[C@H]1c1ccccc1OC [Compound 17] | 4.8 µg/mL | –
COc1ccccc1[C@@H]1C2=C(CNC2=O)N[C@@H]2CCCC[C@H]2N1C(=O)Oc1ccccc1 [Compound 40] | 11 µg/mL | –
COCC(=O)N1[C@@H]2CCCC[C@H]2NC2=C(C(=O)NC2)[C@H]1c1ccccc1C [Compound 87] | 6 µg/mL | –
CCC(=O)N1[C@@H]2CCCC[C@H]2NC2=C(C(=O)NC2)[C@H]1c1ccccc1F [Compound 124] | 2 µg/mL | –
COc1ccccc1CCC(=O)N1[C@@H]2CCCC[C@H]2NC2=C(C(=O)NC2)[C@H]1c1ccccc1OC [Compound 26] | 4 µg/mL | –

Compound | A: sugar transportation activity (EC50) | EC50
CC(=O)OCC(=O)N1[C@@H]2CCCC[C@H]2NC2=C(C(=O)NC2)[C@H]1c1ccccc1C [Compound 85] | 8 µg/mL | –
COc1ccccc1[C@@H]1C2=C(CNC2=O)N[C@@H]2CCCC[C@H]2N1C(=O)CCc1ccc(F)c(F)c1 [Compound 27] | 4.2 µg/mL | –
CCOc1ccccc1[C@@H]1C2=C(CNC2=O)N[C@@H]2CCCC[C@H]2N1C(=O)CC [Compound 47] | 1.9 µg/mL | –
COCC(=O)N1[C@@H]2CCCC[C@H]2NC2=C(C(=O)NC2)[C@H]1c1ccccc1OC(F)(F)F [Compound 69] | 2 µg/mL | –
CCc1ccccc1[C@@H]1C2=C(CNC2=O)N(CC)[C@@H]2CCCC[C@H]2N1C(C)=O [Compound 102] | 5 µg/mL | –
CCOc1ccccc1[C@@H]1C2=C(CNC2=O)N[C@@H]2CCCC[C@H]2N1C(=O)C(F)(F)F [Compound 49] | 5 µg/mL | –
O=C1NCC2=C1[C@@H](c1ccccc1OC(F)(F)F)N(C(=O)CO)[C@@H]1CCCC[C@H]1N2 [Compound 68] | 2.7 µg/mL | –
CCOC(=O)N1[C@@H]2CCCC[C@H]2NC2=C(C(=O)NC2)[C@H]1c1ccccc1C [Compound 89] | 7 µg/mL | –
COc1ccccc1[C@@H]1C2=C(CNC2=O)N[C@@H]2CCCC[C@H]2N1C(=O)CCNC(=O)OCc1ccccc1 [Compound 22] | 8 µg/mL | –
CCOCC(=O)N1[C@@H]2CCCC[C@H]2NC2=C(C(=O)NC2)[C@H]1c1ccccc1OC(C)C [Compound 59] | 2 µg/mL | –
COC(=O)N1[C@@H]2CCCC[C@H]2NC2=C(C(=O)NC2)[C@H]1c1ccccc1OC [Compound 37] | 6 µg/mL | –
CCC(=O)N1[C@@H]2CCCC[C@H]2NC2=C(C(=O)NC2)[C@H]1c1ccccc1Br [Compound 110] | 1.5 µg/mL | –
Cc1ccccc1[C@@H]1C2=C(CNC2=O)N[C@@H]2CCCC[C@H]2N1C(=O)C(F)(F)F [Compound 82] | 6 µg/mL | –
CC(=O)N1[C@@H]2CCCC[C@H]2NC2=C(C(=O)NC2)[C@H]1c1ccc(Br)s1 [Compound 144] | – | 19 µg/mL (≈ 46.3 µM)
CCNC(=O)N1[C@@H]2CCCC[C@H]2NC2=C(C(=O)NC2)[C@H]1c1ccccc1OC [Compound 41] | 3.6 µg/mL | –
CCC(=O)N1[C@@H]2CCCC[C@H]2NC2=C(C(=O)NC2)[C@H]1c1ccccc1OC(C)C [Compound 58] | 2 µg/mL | –
COc1ccccc1[C@@H]1C2=C(CNC2=O)N[C@@H]2CCCC[C@H]2N1C(=O)CCc1ccccc1 [Compound 25] | 0.9 µg/mL | –
COC(=O)N1[C@@H]2CCCC[C@H]2NC2=C(C(=O)NC2)[C@H]1c1ccccc1 [Compound 133] | 2 µg/mL | –
COc1ccccc1[C@@H]1C2=C(CNC2=O)N[C@@H]2CCCC[C@H]2N1C(=O)Cc1ccccc1 [Compound 13] | 5 µg/mL | –
CCOCC(=O)N1[C@@H]2CCCC[C@H]2NC2=C(C(=O)NC2)[C@H]1c1ccccc1OC [Compound 11] | 2.2 µg/mL | –
COc1ccccc1[C@@H]1C2=C(CNC2=O)N[C@@H]2CCCC[C@H]2N1C(=O)CCSC [Compound 28] | 2.6 µg/mL | –
CCNC(=O)N1[C@@H]2CCCC[C@H]2NC2=C(C(=O)NC2)[C@H]1c1ccccc1OCC [Compound 56] | 12 µg/mL | –
COC(=O)N1[C@@H]2CCCC[C@H]2NC2=C(C(=O)NC2)[C@H]1c1ccccc1F [Compound 127] | 2 µg/mL | –

— US7807663B2, “Therapeutic agents for diabetes” (Ajinomoto Co., Inc., priority 2003, dated 2010)
